Test results from US20230293526A1, “METHOD FOR TREATING CANCER WITH A REVERSE TRANSCRIPTASE INHIBITOR” (PrimeFour Therapeutics, Inc., priority 2020, published 2023).
pIC50: −log10 of the molar value.

Test system: CASKI
Experiment: Cell proliferation Ex.3
Format: cell-based
Conditions: Homo sapiens, Ca-Ski
Protocol: A dose response relationship on cell proliferation was assessed for Compound 13 on 140 tumor cell lines. […] Cells were cultured in the appropriate media. For the assays, cells were seeded in white cell culture-treated flat and clear bottom multiwell plates and incubated at 37° C. overnight before compound was added. […] dependent on the medium, cell plates were equilibrated to room temperature for one hour, CellTiterGlo reagent (Promega) was added and luminescence was measured approximately an hour later using a luminometer. Raw data were converted into percent cell viability relative to the high and low control, which were set to 10000 and 000, respectively.

Measured: pIC50

C#C[C@]1(CO)O[C@@H](n2cc(F)c(N)nc2=O)C[C@@H]1O [compound 9]
< 5.00: 72 h | 120 h | 168 h
